Measured values published in patent US10294202B2, “Pyrrolidinones as herbicides” (FMC Corporation, priority 2013, dated 2019).

Experiments:
barnyardgrass = test: Test A pre-/postemergence herbicide test; format: in vivo, Echinochloa crus-galli; settings: 1000 g ai/ha
Summary of the method: (§1)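 Visual injury ratings, 0 = no effect, 100 = complete control, taken ~10 days after treatment against untreated greenhouse controls. Preemergence: directed soil spray onto seeded loam/sand pots. Postemergence: spray onto plants at one- to two-leaf stage, 2–10 cm tall.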

pigweed = test: Test A pre-/postemergence herbicide test; format: in vivo, Amaranthus retroflexus; settings: 1000 g ai/ha
Summary of the method: as §1

corn [1] = test: Test A pre-/postemergence herbicide test; format: in vivo, Zea mays; settings: 1000 g ai/ha
Summary of the method: as §1

sedge, umbrella = test: Test B flooded paddy test; format: in vivo, Cyperus difformis; settings: 250 g ai/ha, Flood; scale of 0 to 100 where 0 is no effect and 100 is complete control
Summary of the method: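 Paddy-water application at a 3 cm flood, young plants having two leaves. Water level maintained; greenhouse, 13–15 days; visual 0–100 control rating.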

ryegrass, Italian = test: Test C pre-/postemergence herbicide test; format: in vivo, Lolium multiflorum; settings: Preemergence
Summary of the method: (§2)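 Pre- and postemergence greenhouse screen. Preemergence treatment went onto freshly planted seeds in loam–sand soil; postemergence treatment went onto plants 2 to 18 cm tall at the 1- to 4-leaf stage in sphagnum peat/vermiculite medium. Scoring at 13 to 15 days used a 0–100 control scale.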

galium = test: Test C pre-/postemergence herbicide test; format: in vivo, Galium aparine; settings: Preemergence
Summary of the method: as §2

corn [2] = test: Test C pre-/postemergence herbicide test; format: in vivo, Zea mays; settings: Preemergence
Summary of the method: as §2

foxtail, giant = test: Test C pre-/postemergence herbicide test; format: in vivo, Setaria faberii; settings: Preemergence
Summary of the method: as §2

ragweed = test: Test C pre-/postemergence herbicide test; format: in vivo, Ambrosia elatior; settings: Preemergence
Summary of the method: as §2

soybean = test: Test C pre-/postemergence herbicide test; format: in vivo, Glycine max; settings: Preemergence
Summary of the method: as §2

oat, wild = test: Test C pre-/postemergence herbicide test; format: in vivo, Avena fatua; settings: Preemergence
Summary of the method: as §2

[3] = Postemergence, 0 to 100 scale (0 no effect, 100 complete control)
[4] = Preemergence, visual rating on 0 to 100 scale (0 no effect, 100 complete control), approx. 10 days
[5] = 125 g ai/ha, scale 0 to 100 (0 no effect, 100 complete control)
[6] = 31 g ai/ha, scale 0 to 100 (0 no effect, 100 complete control)
[7] = 250 g ai/ha, scale 0 to 100 (0 no effect, 100 complete control)

Cc1ccccc1NC(=O)C1C(=O)NCC1c1cc(F)c(F)c(F)c1 (racemic) [Compound 35]
Plant response rating, Barnyardgrass (barnyardgrass; [3]): 90
Plant response rating, Barnyardgrass (barnyardgrass; [4]): 90
Plant response rating, Pigweed (pigweed; [3]): 0
Plant response rating, Pigweed (pigweed; [4]): 0
Plant response rating, Corn (corn [1]; [3]): 20
Plant response rating, Corn (corn [1]; [4]): 20
Plant response rating, Sedge, Umbrella (sedge, umbrella): 0
Plant response rating, Ryegrass, Italian (ryegrass, Italian; 62 g ai/ha, scale 0 to 100): 5
Plant response rating, Ryegrass, Italian (ryegrass, Italian; [5]): 5
Galium plant response rating (galium; [6]): 0
Plant response rating, Galium (galium; 62 g ai/ha, scale 0 to 100): 0
Plant response rating, Galium (galium; [5]): 5
Plant response rating, Galium (galium; [7]): 30
Corn plant response rating (corn [2]; [6]): 0
Plant response rating, Corn (corn [2]; 62 g ai/ha, scale 0 to 100): 0
Plant response rating, Corn (corn [2]; [5]): 5
Plant response rating, Corn (corn [2]; [7]): 5
Foxtail, Giant plant response rating (foxtail, giant; [6]): 80
Plant response rating, Foxtail, Giant (foxtail, giant; 62 g ai/ha, scale 0 to 100): 90
Plant response rating, Foxtail, Giant (foxtail, giant; [5]): 98
Plant response rating, Foxtail, Giant (foxtail, giant; [7]): 98
Plant response rating, Ragweed (ragweed; 62 g ai/ha, scale 0 to 100): 0
Plant response rating, Ragweed (ragweed; [5]): 0
Plant response rating, Soybean (soybean; 62 g ai/ha, scale 0 to 100): 0
Plant response rating, Soybean (soybean; [5]): 0
Plant response rating, Oat, Wild (oat, wild; 62 g ai/ha, scale 0 to 100): 0
Plant response rating, Oat, Wild (oat, wild; [5]): 0
